Structures can show the parent of a compound that is named as a salt.

We go through 9 molecules from patent publication US5567728A, “Receptor ligands” (priority 1991, dated 1996).

For test [1], the target named is T1, Human thyroid hormone receptor β1 (hThR β1) (Homo sapiens, UniProt P10828).
T1 construct: made in house; host or cells: insect cells, recombinant baculovirus
T1 sequence (P10828 1-461): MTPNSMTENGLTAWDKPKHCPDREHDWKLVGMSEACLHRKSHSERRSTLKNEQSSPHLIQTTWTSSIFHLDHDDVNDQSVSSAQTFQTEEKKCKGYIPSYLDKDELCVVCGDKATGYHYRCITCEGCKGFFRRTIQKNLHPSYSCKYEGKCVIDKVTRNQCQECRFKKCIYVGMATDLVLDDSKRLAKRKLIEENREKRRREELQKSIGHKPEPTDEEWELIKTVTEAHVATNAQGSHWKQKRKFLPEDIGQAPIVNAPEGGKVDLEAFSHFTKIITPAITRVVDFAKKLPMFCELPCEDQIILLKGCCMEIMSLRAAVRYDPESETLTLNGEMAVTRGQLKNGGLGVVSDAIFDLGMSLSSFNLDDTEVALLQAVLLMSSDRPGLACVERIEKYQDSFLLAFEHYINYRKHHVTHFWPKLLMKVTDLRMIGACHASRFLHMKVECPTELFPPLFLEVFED
Briefly: Binding experiments: displacement of 125I-T-3 from hThR β1. Particulars: [hThRβ]=5.0×10^-11 M; [125I-T3]=2.0×10^-10 M; pH 7,5; incubated over night (16-20 hours); not above +4° C. The method, then:
Human thyroid hormone receptor β1 (hThR β1) was expressed in insect cells using a recombinant baculovirus (Barkhem T., et al. The Journal of Steroid Biochemistry and Molecular Biology: Vol 38, No 6 (1991) p 667).
Solutions of hThR β1 and of ^125 I-T-3 were made in E400 (K2 HPO4 =20 mM, KCl=400 mM, MgCl2 =l mM, EDTA=0,5 mM, monothioglycerol=6 mM, glycerol 8,7% (v/v), histones (type 11AS) 10 μg/ml pH=7,5). Histones and Monothioglycerol were purchased from Sigma (St. Louis, Mo., USA), the other compounds in E400 were from Merck (Darmstadt, BRD). […] Stock solutions of the compound (011) (20 mM) was made in 5% EtOH/1 mM NaOH.
For convenience the incubations were performed over night (16-20 hours).
The incubation was stopped by the loading of 180 μl incubation mixture on a Quik-Sep Sephadex G-25 column (#9041-35-4 ISOLAB, Akron, Ohio, USA). The peak of protein-bound 125 I-T-3 was eluted with 1 ml E400 and collected in a test tube (passage of free T-3 through column is delayed). The eluted radioactivity was measured in a gamma-counter.
All incubations and dilutions were made in polypropylene tubes. Great care was taken to avoid exposure of hThR β1 to temperatures above +4° C.
(DeLean, A., et al, Am. J. Physiol. 235: E97-E102. (1978)).
The calculations were performed in KaleidaGraph™ 2.0.2 (Adelbeck Software) on a Macintosh IIcx computer.
Experiments conducted with [hThRβ]=5.0×10^-11 M and with [^125 I-T3 ]=2.0×10^-10 M

In a further test the test system is T-3 receptor. Briefly: biological assay, such as the method of Westerfield et al. (T-3 receptor antagonism). Particulars: "can be shown" by a biological assay such as Westerfield et al.; no data given.
In test [2] the test system is isolated intestine of the guinea-pig. Particulars: cited from earlier work.
Test [3] has as its system coronary vessels of the heart of the rabbit. Particulars: cited from earlier work.
Test [4] relates to rat growth hormone (rGH) mRNA levels in cultured rat pituitary cells. As to conditions: dose dependent; cited from earlier work.

As to `CCCCc1oc2ccccc2c1C(O)c1cc(I)c(OCCN(CC)CC)c(I)c1` (stereo not shown) [(001), 3,5-diiodo-4-(2-N,N-diethylaminoethoxy)phenyl-(2-butyl-benzofur-3-yl)methanol hydrochloride], in test [1], the IC50 (in general, the midpoint of a concentration-inhibition curve) was found to be 3.6 µM. The T-3 receptor antagonism entry in the test on T-3 receptor is “T-3 receptor antagonists”.
The matching figures for `CCN(CC)CCOc1c(I)cc(C(=O)c2c(C)oc3ccccc23)cc1I` [(003), 2-methyl-3-(3,5-diiodo-4-(2-N,N-diethylaminoethoxy)-benzoyl)-benzofuran hydrochloride]: 10 µM and “T-3 receptor antagonists”.
On the same counts, the results for `CCCCc1oc2ccccc2c1C(=O)c1cc(I)c(OCC(=O)O)c(I)c1` [(005), 2-n-butyl-3-(3,5-diiodo-4-carboxymethoxy-benzoyl)benzofuran] are 4 µM and “T-3 receptor antagonists”.
Take `Cc1oc2ccccc2c1C(=O)c1cc(I)c(O)c(I)c1` [(011), 2-methyl-3-(3,5-diiodo-4-hydroxy-benzoyl)benzofuran]: the spasmolytic activity result in test [2] is “spasmolytic activity”. Besides, in test [1], the IC50 is 2.5 µM. For the same molecule, in the test on T-3 receptor, the T-3 receptor antagonism entry is listed as “T-3 receptor antagonists”. The “dilatory effects on coronary vessels” value in test [3] is listed as “some dilatory effects on the coronary vessels”.
Molecule `Cc1oc2ccccc2c1Cc1cc(I)c(OCC(=O)O)c(I)c1` [(015), 2-methyl-3-(3,5-diiodo-4-carboxymethoxybenzyl)benzofuran] registered an IC50 in test [1] of 8 µM. In the test with T-3 receptor, the T-3 receptor antagonism entry is “T-3 receptor antagonists”.
On the same counts, the results for `CN(C)CCOc1c(I)cc(C(=O)c2ccc(O)c(I)c2)cc1I` [(024), 4'-hydroxy-3'-iodo-3,5-diiodo-4-(2-N,N-dimethylaminoethoxy))benzophenon hydrochloride] are 11 µM and “T-3 receptor antagonists”.
The matching figures for `CCCCc1oc2ccccc2c1C(=O)c1ccc(O)c(I)c1` [(029), 2-butyl-3-(3-iodo-4-hydroxybenzoyl)benzofuran]: 3.2 µM and “T-3 receptor antagonists”.
The matching figures for `Oc1ccc(Cc2cc(I)c(O)c(I)c2)cc1I` [(032), 4', 4-dihydroxy-3'3,5-triiodo-diphenylmethan]: 0.42 µM and “T-3 receptor antagonists”.
With `CCCCc1oc2ccccc2c1C(=O)c1cc(I)c(OCCN(CC)CC)c(I)c1` [Amiodarone], the “inhibition of T-3 induced increase in rGH mRNA levels” value in test [4] was “inhibit T-3 induced increase in rat growth hormone (rGH) mRNA levels”.
